pIC50: −log10 of the molar value.

The subject of the test is Keratinocytes of newly born mice. The test can be described thus: antiproliferative potency: 3H thymidine incorporation in DNA of keratinocytes. Particulars: Keratinocyte; neonatal mouse keratinocytes, 24 hours with test substance in serum-free medium at 32.5° C., then 4 hours 3H methyl thymidine; read-out: IC50, inhibition of 3H thymidine incorporation in DNA. Type of test: cell-based, mouse (neonatal NMRI mice). How it is done: Keratinocytes of newly born mice, with a slight change of the method of Yuspa, S. and Harris, C.
Neonatal NMRI mice of both sexes are killed by decapitation, the skin is removed, washed in an antibiotic-antimycotic solution and incubated with the dermal side downward in dispase II solution ([…] in tissue culture medium M199+25 mmol/1 of HEPES+15% fetal calf serum (FCS)+50 U/ml of penicillin/streptomycin (P/S) (preparation medium, PM) at 4° C. overnight. The epidermis is removed and an individual cell suspension is produced by trypsinization. After centrifuging, the cell sediment is resuspended, after trypan blue dyeing, the number of living small round cells is determined and the cells are sown in a density of 4×10^5 cells/cm^2 in Primaria 24-hole plates in tissue culture medium (M199+15% FCS+50 U/ml of P/S). […] Then 0.4 microCi/50 microliters of ^3 H methyl thymidine (40 Ci/mmol) is added. After 4 hours the medium is suctioned off and the reaction is ended by addition of 500 microliters of ice-cold 10% trichloroacetic acid (TCA). The cells are washed with TCA and PBS, lysed by incubation in a proteinase K solution (10 mmol/l of tris-HCl, 10 mmol/l of EDTA, 10 mmol/l of NaCl, 0.2% of Triton-X 100, pH 8.0, 50 micrograms/ml of […]) and the lysate is clarified by centrifuging. In the supernatant the radioactivity is determined scintillation photometrically and, after specific staining of the DNA with diamidinophenylindole (DAPI), the DNA concentration is fluorescence photometrically determined.
A general note: Incorporation of labelled thymidine or its analogues reports DNA synthesis.
As to `C=C1/C(=C\C=C2/CCC[C@]3(C)[C@@H]([C@H](C)/C=C/[C@@H](O)CC(C)C)CC[C@@H]23)C[C@@H](O)C[C@@H]1O` [Compound B, (5Z,7E,22E)-(1S,3R,24S)-9,10-seco-24a-homo-5,7,10(19),22-cholestatetraene-1,3,24-triol], the pIC50 was 8.02. With `C=C1/C(=C\C=C2/CCC[C@]3(C)[C@@H]([C@H](C)CCCC(C)(C)O)CC[C@@H]23)C[C@@H](O)C[C@@H]1O` [Calcitriol, 1alpha,25-dihydroxy-cholecalciferol, reference compound], the pIC50 was 8.57.

For the molecule `C=C1/C(=C\C=C2/CCC[C@]3(C)[C@@H]([C@H](C)/C=C/[C@H](O)CC(C)C)CC[C@@H]23)C[C@@H](O)C[C@@H]1O` [Compound A, (5Z,7E,22E)-(1S,3R,24R)-9,10-seco-24a-homo-5,7,10(19),22-cholestatetraene-1,3,24-triol], the pIC50 is 8.22.

Source of the values: patent US5665716A, “24-homo vitamin D derivatives, process for their production and pharmaceutical preparations obtained therefrom” (Schering Aktiengesellschaft, priority 1989, dated 1997).
